Experimental data as given in patent EP0745595A1, “3-(3-Aryloxyphenyl)-1-(substituted methyl)-s-triazine-2,4,6-oxo or thiotrione herbicidal agents” (American Cyanamid Company, priority 1995, dated 1996).

Tests used:
Type in all cases: in vivo
[1] = test system: ORYZA SATIVA, L. TEBONNET; assay: Postemergence herbicidal evaluation, ORYSAT (Rice, Tebonnet); parameters: key: 0-9 visual rating scale vs untreated control
Description: (§1) In the tests, seedling plants are grown in jiffy flats for about two weeks. The test compounds are dispersed in 50/50 acetone/water mixtures containing 0.5% TWEEN®20, a polyoxyethylene sorbitan monolaurate surfactant of Atlas Chemical Industries, in sufficient quantities to provide the equivalent of about 0.125 kg to 0.500 kg per hectare of active compound when applied to the plants through a spray nozzle operating at 40 psi for a predetermined time. After spraying, the plants are placed on greenhouse benches and are cared for in the usual manner, commensurate with conventional greenhouse practices. From four to five weeks after treatment, the seedling plants are examined and rated according to the rating system set forth below. Where more than one test is involved for a given compound, the data are averaged.
(§2) Plant species employed in these evaluations are reported by header abbreviation, common name and scientific name.
(§3) Results of herbicide evaluation are expressed on a rating scale (0-9). The scale is based upon a visual observation of plant stand, vigor, malformation, size, chlorosis and overall plant appearance as compared with a control.

[2] = test system: CHENOPODIUM ALBUM, L.; assay: Postemergence herbicidal evaluation, CHEAL (Lambsquarters, Common)
Description: as §1, with “in sufficient quantities to provide the equivalent of about 0.125 kg to 0.500 kg per hectare of active compound when applied” left out
as §2, §3

[3] = test system: TRITICUM AESTIVUM, CV. APOLLO; assay: Postemergence herbicidal evaluation, TRZAWO (Wheat, Winter, CV. APOLLO)
Description: as §1, with “in sufficient quantities to provide the equivalent of about 0.125 kg to 0.500 kg per hectare of active compound when applied to the plants” left out
as §2, §3

[4] = test system: GALIUM APARINE; assay: Postemergence herbicidal evaluation, GALAP (Galium); parameters: key to GALAP rating / Herbicidal effect rating, GALAP / GALAP: 0-9 visual rating scale vs untreated control
Description: as §1, §2, §3

[5] = test system: ECHINOCHLOA CRUS-GALLI, (L) BEAU; assay: Postemergence herbicidal evaluation, ECHCG (Barnyardgrass); parameters: key to ECHCG rating / Herbicidal effect rating, ECHCG / ECHCG: 0-9 visual rating scale vs untreated control
Description: as §1, §2, §3

[6] = test system: CHENOPODIUM ALBUM, L.; assay: Preemergence herbicidal evaluation, CHEAL (Lambsquarters, Common);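 further: higher means more injury with 8 approaching complete kill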
Source text: as §3
The preemergence herbicidal activity of the test compounds of the present invention is exemplified by the following tests in which the seeds of a variety of monocotyledonous and dicotyledonous plants are separately mixed with potting soil and planted on top of approximately one inch of soil in separate pint cups. […] The treated cups are then placed on greenhouse benches, watered and cared for in accordance with conventional greenhouse procedures. From four to five weeks after treatment, the tests are terminated and each cup is examined and rated according to the rating system provided in Example 40.
The compounds evaluated are reported by compound number given in Example 40.

[7] = test system: CASSIA OBTUSIFOLIA, L.; assay: Postemergence herbicidal evaluation, CASOB (Sicklepod); parameters: key to CASOB rating / Herbicidal effect rating, CASOB / CASOB: 0-9 visual rating scale vs untreated control
Description: as §1, §2, §3

[8] = test system: GLYCINE MAX(L) MERR. CV. WILLIAMS; assay: Postemergence herbicidal evaluation, GLXMAW (Soybean, Williams); parameters: key to GLXMAW rating / Herbicidal effect rating, GLXMAW / GLXMAW: 0-9 visual rating scale vs untreated control
Description: as §1, §2, §3

[9] = test system: ZEA MAYS L.; assay: Postemergence herbicidal evaluation, ZEAMX (Corn, Field)
Description: as §1, with “in sufficient quantities to provide the equivalent of about 0.125 kg to 0.500 kg per hectare of active compound when applied” left out
as §2, §3

[10] = test system: SETARIA VIRIDIS, (L) BEAU; assay: Postemergence herbicidal evaluation, SETVI (Foxtail, Green); parameters: key to SETVI rating / Herbicidal effect rating, SETVI / SETVI: 0-9 visual rating scale vs untreated control
Description: as §1, §2, §3

[11] = test system: ABUTILON THEOPHRASTI, MEDIC.; assay: Postemergence herbicidal evaluation, ABUTH (Velvetleaf)
Description: as §1, with “in sufficient quantities to provide the equivalent of about 0.125 kg to 0.500 kg per hectare of active compound when applied” left out
as §2, §3

[12] = test system: AMBROSIA ARTEMISIIFOLIA, L.; assay: Postemergence herbicidal evaluation, AMBEL (Ragweed, Common)
Description: as §1, with “in sufficient quantities to provide the equivalent of about 0.125 kg to 0.500 kg per hectare of active compound when applied” left out
as §2, §3

[13] = test system: ORYZA SATIVA, L. TEBONNET; assay: Rice tolerance to post-transplant applications under flooded paddy conditions, ORYSAT (Rice, Tebonnet); conditions: post-transplanted rice
Description: as §3
The tolerance of transplanted rice to post-transplanted herbicide applications is determined as follows: two ten-day-old rice seedlings (CV. Tebonnet) are transplanted into a silt loam soil in 32 oz. plastic containers with a diameter of 10.5 cm and no drainage holes. After transplanting the containers are flooded and the water level is maintained at 1.5 to 3 cm above the soil surface. […] The treated containers are placed on greenhouse benches, watered such that the water level is maintained as stated above, and cared for according to normal greenhouse procedures. Three to four weeks after treatment the test is terminated and each container is examined and herbicidal effect rated according to the rating system provided in Example 40. The compounds evaluated are reported by compound number given in Example 40.
Plant species employed in this example are reported by header abbreviation, common name and scientific name.

[14] = test system: IPOMOEA SPP.; assay: Postemergence herbicidal evaluation, IPOSS (Morningglory spp.)
Description: as §1, with “in sufficient quantities to provide the equivalent of about 0.125 kg to 0.500 kg per hectare of active compound when applied” left out
as §2, §3

Cn1c(=O)[nH]c(=O)n(-c2cc(Oc3ccc(C(F)(F)F)cc3Cl)ccc2[N+](=O)[O-])c1=O [B, reference compound]
Herbicidal effect rating, ORYSAT ([1]; 0.031 kg/ha): 4.0
Herbicidal effect rating, ORYSAT ([1]; 0.063 kg/ha): 4.5
Herbicidal effect rating, ORYSAT ([1]; 0.125 kg/ha): 5.5
Herbicidal effect rating, ORYSAT ([1]; 0.250 kg/ha): 5.0
Herbicidal effect rating, CHEAL ([2]; 0.031 kg/ha): 2.0
Herbicidal effect rating, CHEAL ([2]; 0.063 kg/ha): 2.5
Herbicidal effect rating, CHEAL ([2]; 0.125 kg/ha): 7.0
Herbicidal effect rating, CHEAL ([2]; 0.250 kg/ha): 4.5
Herbicidal effect rating, TRZAWO ([3]; 0.031 kg/ha): 3.0
Herbicidal effect rating, TRZAWO ([3]; 0.063 kg/ha): 3.0
Herbicidal effect rating, TRZAWO ([3]; 0.125 kg/ha): 4.0
Herbicidal effect rating, TRZAWO ([3]; 0.250 kg/ha): 4.3
Herbicidal effect rating, GALAP ([4]; 0.031 kg/ha): 2.0
Herbicidal effect rating, GALAP ([4]; 0.063 kg/ha): 2.5
Herbicidal effect rating, GALAP ([4]; 0.125 kg/ha): 7.0
Herbicidal effect rating, GALAP ([4]; 0.250 kg/ha): 4.5
Herbicidal effect rating, ECHCG ([5]; 0.031 kg/ha): 1.0
Herbicidal effect rating, ECHCG ([5]; 0.063 kg/ha): 2.0
Herbicidal effect rating, ECHCG ([5]; 0.125 kg/ha): 3.0
Herbicidal effect rating, ECHCG ([5]; 0.250 kg/ha): 3.5
CHEAL ([6]; Rate 0.031 kg/ha): 4.5
CHEAL ([6]; Rate 0.063 kg/ha): 4.5
CHEAL ([6]; Rate 0.125 kg/ha): 4.5
CHEAL ([6]; Rate 0.250 kg/ha): 4.5
Herbicidal effect rating, CASOB ([7]; 0.031 kg/ha): 3.5
Herbicidal effect rating, CASOB ([7]; 0.063 kg/ha): 4.0
Herbicidal effect rating, CASOB ([7]; 0.125 kg/ha): 8.0
Herbicidal effect rating, CASOB ([7]; 0.250 kg/ha): 5.5
Herbicidal effect rating, GLXMAW ([8]; 0.031 kg/ha): 3.3
Herbicidal effect rating, GLXMAW ([8]; 0.063 kg/ha): 4.0
Herbicidal effect rating, GLXMAW ([8]; 0.125 kg/ha): 4.0
Herbicidal effect rating, GLXMAW ([8]; 0.250 kg/ha): 4.3
Herbicidal effect rating, ZEAMX ([9]; 0.031 kg/ha): 3.3
Herbicidal effect rating, ZEAMX ([9]; 0.063 kg/ha): 3.3
Herbicidal effect rating, ZEAMX ([9]; 0.125 kg/ha): 4.5
Herbicidal effect rating, ZEAMX ([9]; 0.250 kg/ha): 4.3
Herbicidal effect rating, SETVI ([10]; 0.031 kg/ha): 0.5
Herbicidal effect rating, SETVI ([10]; 0.063 kg/ha): 1.0
Herbicidal effect rating, SETVI ([10]; 0.125 kg/ha): 0.0
Herbicidal effect rating, SETVI ([10]; 0.250 kg/ha): 2.0
Herbicidal effect rating, ABUTH ([11]; 0.031 kg/ha): 4.5
Herbicidal effect rating, ABUTH ([11]; 0.063 kg/ha): 7.0
Herbicidal effect rating, ABUTH ([11]; 0.125 kg/ha): 7.0
Herbicidal effect rating, ABUTH ([11]; 0.250 kg/ha): 9.0
Herbicidal effect rating, AMBEL ([12]; 0.031 kg/ha): 3.0
Herbicidal effect rating, AMBEL ([12]; 0.063 kg/ha): 4.5
Herbicidal effect rating, AMBEL ([12]; 0.125 kg/ha): 8.0
Herbicidal effect rating, AMBEL ([12]; 0.250 kg/ha): 7.0
ORYSAT ([13]; Rate 0.031 kg/ha): 2.0
ORYSAT ([13]; Rate 0.063 kg/ha): 3.0
ORYSAT ([13]; Rate 0.125 kg/ha): 2.5
ORYSAT ([13]; Rate 0.250 kg/ha): 4.5
Herbicidal effect rating, IPOSS ([14]; 0.031 kg/ha): 8.0
Herbicidal effect rating, IPOSS ([14]; 0.063 kg/ha): 9.0
Herbicidal effect rating, IPOSS ([14]; 0.125 kg/ha): 8.0
Herbicidal effect rating, IPOSS ([14]; 0.250 kg/ha): 9.0
